# Assay results: publication PMC12472322, “Structure–Activity Relationship Study of 3-Alkynyl-6-aryl-isothiazolo[4,3-b]pyridines as Dual Inhibitors of the Lipid Kinases PIKfyve and PIP4K2C” (Pharmaceuticals, 2025)
# Read-outs that look alike come from different tables or passages of the source.
# Columns and labels:
# VEEV (TC-83) = assay: microbe, parasite or virus in culture; assay type: cell-based; conditions: Venezuelan equine encephalitis virus, U-87 MG, 18 h, read-out: VEEV (TC-83) EC50
# SARS-CoV-2 = assay: microbe, parasite or virus in culture; assay type: cell-based, severe acute respiratory syndrome coronavirus 2; conditions: Severe acute respiratory syndrome coronavirus 2, VeroE6/TMPRSS2, 24 h; read-out: SARS-CoV2 EC50
# [1] = cell viability (AlamarBlue) in SARS-CoV-2-infected Vero E6/TMPRSS2 cells; assay type: cell-based; conditions: African green monkey, Vero E6/TMPRSS2 cells infected with SARS-CoV-2, half-maximal cytotoxic concentration, read-out: SARS-CoV2 CC50
# U-87 MG cells = conditions: half-maximal cytotoxic concentration
# [2] = tested on: non-Hodgkin lymphoma (NHL) B-cell lines; conditions: large panel of NHL B-cell lines; read-out: antiproliferative IC50; cited from earlier work
# [3] = tested on: subcutaneous Burkitt lymphoma xenografts; conditions: oral administration, mice; cited from earlier work
# Capan-1 = assay: cell proliferation assay (MTS, 72 h); conditions: Homo sapiens, CAPAN-1, 72 h, read-out: CC50 Capan-1
# HCT-116 = assay: cell proliferation assay (MTS, 72 h); conditions: Homo sapiens, HCT-116, 72 h, read-out: CC50 HCT-116
# LN-229 = assay: cell proliferation assay (MTS, 72 h); conditions: Homo sapiens, LN-229, 72 h, read-out: CC50 LN-229
# NCI-H460 = assay: cell proliferation assay (MTS, 72 h); conditions: Homo sapiens, NCI-H460, 72 h, read-out: CC50 NCI-H460
# DND-41 = assay: cell proliferation assay (MTS, 72 h); conditions: DND41, 72 h, read-out: CC50 DND-41
# HL-60 = assay: cell proliferation assay (MTS, 72 h); conditions: Homo sapiens, HL-60, 72 h, read-out: CC50 HL-60
# K-562 = assay: cell proliferation assay (MTS, 72 h); conditions: Homo sapiens, K562, 72 h, read-out: CC50 K-562
# Z-138 = assay: cell proliferation assay (MTS, 72 h); conditions: Homo sapiens, Z-138, 72 h, read-out: CC50 Z-138
# PIP4K2C [4] = molecular target: T1, PIP4K2C (Homo sapiens, UniProt Q8TBX8); conditions: cited from earlier work
# T1 sequence (Q8TBX8 1-421): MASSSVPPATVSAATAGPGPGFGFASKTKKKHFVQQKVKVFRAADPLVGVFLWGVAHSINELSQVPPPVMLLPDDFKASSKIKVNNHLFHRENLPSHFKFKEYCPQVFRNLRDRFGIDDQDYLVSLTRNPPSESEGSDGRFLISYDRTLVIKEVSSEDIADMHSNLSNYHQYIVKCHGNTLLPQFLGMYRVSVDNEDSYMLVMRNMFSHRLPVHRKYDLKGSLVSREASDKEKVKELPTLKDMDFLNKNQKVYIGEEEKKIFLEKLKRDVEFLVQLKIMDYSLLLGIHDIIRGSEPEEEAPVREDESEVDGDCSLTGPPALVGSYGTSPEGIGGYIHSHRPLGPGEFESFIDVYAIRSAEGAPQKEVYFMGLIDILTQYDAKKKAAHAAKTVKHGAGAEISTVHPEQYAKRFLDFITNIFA
# PIKfyve = molecular target: T2, PIKfyve (Homo sapiens, UniProt Q9Y2I7); assay: biochemical PIKfyve mobility shift assay (Nanosyn)
# T2 construct: purchased Nanosyn, Santa Clara, CA, USA (contract assay service)
# PIP4K2C [5] = molecular target: T1, PIP4K2C; assay: PIP4K2C binding assay (DiscoverX/Kinome platform)
# T2 sequence (Q9Y2I7 whole entry): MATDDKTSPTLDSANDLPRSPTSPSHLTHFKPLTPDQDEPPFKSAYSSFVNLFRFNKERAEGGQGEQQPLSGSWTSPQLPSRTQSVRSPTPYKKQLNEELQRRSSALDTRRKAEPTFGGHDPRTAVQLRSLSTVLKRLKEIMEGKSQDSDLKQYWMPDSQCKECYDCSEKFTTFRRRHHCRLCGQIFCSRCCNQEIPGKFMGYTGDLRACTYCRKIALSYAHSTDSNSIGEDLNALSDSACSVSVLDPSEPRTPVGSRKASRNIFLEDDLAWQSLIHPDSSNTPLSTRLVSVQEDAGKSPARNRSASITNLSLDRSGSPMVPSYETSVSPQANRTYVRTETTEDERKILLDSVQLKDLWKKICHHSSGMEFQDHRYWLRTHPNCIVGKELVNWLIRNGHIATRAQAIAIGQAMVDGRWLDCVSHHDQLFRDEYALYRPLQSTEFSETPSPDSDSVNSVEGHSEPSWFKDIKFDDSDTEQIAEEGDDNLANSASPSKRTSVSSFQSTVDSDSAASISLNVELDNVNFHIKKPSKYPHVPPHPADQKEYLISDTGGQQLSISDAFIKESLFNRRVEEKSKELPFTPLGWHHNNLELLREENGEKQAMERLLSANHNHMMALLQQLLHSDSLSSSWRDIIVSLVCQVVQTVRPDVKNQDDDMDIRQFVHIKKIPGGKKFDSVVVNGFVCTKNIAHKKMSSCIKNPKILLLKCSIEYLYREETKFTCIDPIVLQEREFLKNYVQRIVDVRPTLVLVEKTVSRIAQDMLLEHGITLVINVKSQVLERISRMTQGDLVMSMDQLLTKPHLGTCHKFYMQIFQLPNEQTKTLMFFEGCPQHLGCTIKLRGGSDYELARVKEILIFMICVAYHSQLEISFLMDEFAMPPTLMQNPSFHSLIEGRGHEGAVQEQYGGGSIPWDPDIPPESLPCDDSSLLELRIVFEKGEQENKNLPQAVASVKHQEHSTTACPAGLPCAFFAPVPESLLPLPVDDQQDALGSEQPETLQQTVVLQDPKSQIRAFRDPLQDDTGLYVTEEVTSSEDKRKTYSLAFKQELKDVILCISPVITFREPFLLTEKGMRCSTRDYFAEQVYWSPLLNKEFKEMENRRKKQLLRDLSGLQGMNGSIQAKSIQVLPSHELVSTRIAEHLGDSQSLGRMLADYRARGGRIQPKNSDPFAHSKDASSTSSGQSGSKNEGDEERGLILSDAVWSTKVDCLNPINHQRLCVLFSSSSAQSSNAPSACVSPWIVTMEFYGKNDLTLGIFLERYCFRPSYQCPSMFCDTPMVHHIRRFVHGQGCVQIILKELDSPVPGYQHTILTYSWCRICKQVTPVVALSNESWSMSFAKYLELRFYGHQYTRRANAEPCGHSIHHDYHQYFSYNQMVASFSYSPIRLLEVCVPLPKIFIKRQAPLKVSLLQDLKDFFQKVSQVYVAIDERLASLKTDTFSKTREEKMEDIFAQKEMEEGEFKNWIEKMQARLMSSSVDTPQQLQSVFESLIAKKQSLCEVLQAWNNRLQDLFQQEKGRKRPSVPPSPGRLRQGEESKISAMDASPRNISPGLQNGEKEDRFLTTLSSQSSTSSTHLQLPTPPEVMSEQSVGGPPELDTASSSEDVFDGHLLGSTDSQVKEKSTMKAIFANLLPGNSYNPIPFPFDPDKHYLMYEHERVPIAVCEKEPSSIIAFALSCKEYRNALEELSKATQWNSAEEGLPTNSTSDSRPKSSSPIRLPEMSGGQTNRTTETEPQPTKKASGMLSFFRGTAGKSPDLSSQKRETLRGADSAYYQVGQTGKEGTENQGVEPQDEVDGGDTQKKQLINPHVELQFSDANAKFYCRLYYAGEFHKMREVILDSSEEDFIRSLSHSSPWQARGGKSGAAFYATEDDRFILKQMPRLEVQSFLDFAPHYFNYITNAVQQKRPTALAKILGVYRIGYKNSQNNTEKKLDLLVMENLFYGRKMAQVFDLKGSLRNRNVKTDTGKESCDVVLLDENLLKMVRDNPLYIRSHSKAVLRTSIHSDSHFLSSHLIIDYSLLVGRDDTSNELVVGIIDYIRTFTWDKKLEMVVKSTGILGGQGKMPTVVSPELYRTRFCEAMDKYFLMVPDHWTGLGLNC
Structure (SMILES),EC50 (VEEV (TC-83)) [nM],EC50 (SARS-CoV-2) [nM],CC50 [1] [nM],VEEV (TC-83) CC50 (U-87 MG cells) [nM],CC50 (Capan-1) [nM],CC50 (HCT-116) [nM],CC50 (LN-229) [nM],CC50 (NCI-H460) [nM],CC50 (DND-41) [nM],CC50 (HL-60) [nM],CC50 (K-562) [nM],CC50 (Z-138) [nM],IC50 (PIKfyve; Tables 1-4 and text) [nM],further results
"Cc1cccc(/C=N/Nc2cc(N3CCOCC3)nc(OCCc3ccccn3)n2)c1 [Apilimod, reference compound]",1350 ± 490,190,18400 ± 420,>10000,< 20,< 20,80 ± 90,< 20,80 ± 20,170 ± 20,330 ± 340,60,–,IC50 [2]: < 200 nM; growth of subcutaneous Burkitt lymphoma xenografts [3]: inhibits the growth
"FC(F)(F)c1ccccc1-c1nc(NCc2cccs2)c2ccccc2n1 [NIH-12848, reference compound]",–,–,–,–,–,–,–,–,–,–,–,–,–,Kd (PIP4K2C [4]): 2800 nM
"COc1ccc(-c2cnc3c(C#Cc4cnccc4C)snc3c2)cc1OC [Compound 7p, 6-(3,4-Dimethoxyphenyl)-3-((4-methylpyridin-3-yl)ethynyl)isothiazolo[4,3-b]pyridine]",4010 ± 130,830 ± 60,> 20000,>10000,> 100000,> 100000,> 100000,> 100000,> 100000,> 100000,> 100000,12300 ± 1770,33,–
"COc1cncc(C#Cc2snc3cc(-c4ccc(OC)c(OC)c4)cnc23)c1 [Compound 7l, 6-(3,4-Dimethoxyphenyl)-3-((5-methoxypyridin-3-yl)ethynyl)isothiazolo[4,3-b]pyridine]",1640 ± 50,4920 ± 930,> 20000,>10000,1790 ± 1200,2450 ± 850,5150 ± 2050,5380 ± 560,5250 ± 640,1800,5700 ± 1270,1850 ± 70,3.3,IC50 (PIKfyve; Table 5 column): 3.3 nM; fold more potent on PIKfyve than 7o (PIKfyve; ratio of IC50 values): 6 fold; fold more potent on PIKfyve than 7h (PIKfyve; ratio of IC50 values): 200 fold; IC50 (PIKfyve; values given in text in nM): 3 nM; Kd (PIP4K2C [5]): 39 nM
"COc1ccc(-c2cnc3c(C#Cc4cccnc4)snc3c2)cc1OC [Compound 21, 6-(3,4-dimethoxyphenyl)-3-(pyridin-3-ylethynyl)isothiazolo[4,3-b]pyridine]",750 ± 20,–,> 20000,>10000,810 ± 110,820 ± 370,1620 ± 500,2520 ± 1090,1750 ± 1020,1470 ± 450,4240 ± 110,770 ± 60,–,Kd (PIP4K2C [4]): 46 nM
"Fc1ccc(-c2cnc3c(C#Cc4cccnc4)snc3c2)cc1 [Compound 3g, 6-(4-Fluorophenyl)-3-(pyridin-3-ylethynyl)isothiazolo[4,3-b]pyridine]",–,–,–,–,730 ± 230,810 ± 160,4390 ± 940,1460 ± 360,3060 ± 1710,1510 ± 710,5180 ± 480,1030 ± 200,10,–
"NC(=O)c1ccc(-c2cnc3c(C#Cc4cccnc4)snc3c2)cc1 [Compound 3m, 4-(3-(Pyridin-3-ylethynyl)isothiazolo[4,3-b]pyridin-6-yl)benzamide]",190 ± 1,1820 ± 940,> 20000,>20000,2410 ± 940,340 ± 780,3230 ± 780,2900 ± 1720,2250 ± 190,1000 ± 570,6530 ± 460,960 ± 300,1.6,IC50 (PIKfyve; Table 5 column): 1.6 nM; Kd (PIP4K2C [5]): 41 nM
